US10633397B2, “Substituted polycyclic pyridone derivatives and prodrugs thereof” (priority 2015, dated 2020)

Legend:
[1] = target: cap-dependent endonuclease (RNP fraction, PB1-PB2-PA complex) (Influenza A virus, UniProt P15659); assay: Measurement of cap-dependant endonuclease (CEN) inhibitory activity; format: biochemical; details: RNP from A/WSN/33 virus, room temperature 60 minutes; read-out: CEN_IC50
influenza virus = assay: CPE inhibitory effect confirming assay; format: cell-based; details: unidentified influenza virus, 72 h, read-out: CPE_EC50

O=C1c2c(O)c(=O)ccn2N([C@H]2c3ccccc3CSc3ccccc32)[C@@H]2COCCN12 [III-1]
IC50 [1]: 10.9 nM
EC50 (influenza virus): 2.1 nM

O=C1c2c(O)c(=O)ccn2N([C@H]2c3ccc(F)cc3CSc3ccccc32)[C@@H]2COCCN12 [III-3]
IC50 [1]: 2.22 nM
EC50 (influenza virus): 3.39 nM

O=C1c2c(O)c(=O)ccn2N([C@@H]2c3ccccc3SCc3c(Cl)cccc32)[C@@H]2COCCN12 [III-4]
IC50 [1]: 2.81 nM
EC50 (influenza virus): 2.08 nM

O=C1c2c(O)c(=O)ccn2N([C@H]2c3ccccc3CSc3ccccc32)[C@@H]2CSCCN12 [III-5]
IC50 [1]: 10.8 nM
EC50 (influenza virus): 4.28 nM

O=C1c2c(O)c(=O)ccn2N([C@H]2c3ccccc3CSc3ccccc32)[C@@H]2CC3(CCN12)OCCO3 [III-7]
IC50 [1]: 8.09 nM
EC50 (influenza virus): 11.5 nM

O=C1c2c(O)c(=O)ccn2N([C@H]2c3ccccc3CSc3ccccc32)[C@@H]2CCOCCN12 [III-8]
IC50 [1]: 2.81 nM
EC50 (influenza virus): 7.18 nM

O=C1c2c(O)c(=O)ccn2N([C@@H]2c3ccccc3SCc3c2ccc(F)c3F)[C@@H]2CSCCN12 [III-9]
IC50 [1]: 2.17 nM
EC50 (influenza virus): 10.9 nM

O=C1c2c(O)c(=O)ccn2N([C@@H]2c3ccccc3SCc3cccc(F)c32)[C@@H]2COCCN12 [III-10]
IC50 [1]: 4.05 nM
EC50 (influenza virus): 3.46 nM

O=C1c2c(O)c(=O)ccn2N([C@@H]2c3ccccc3SCc3c(F)cc(F)cc32)[C@@H]2COCCN12 [III-11]
IC50 [1]: 13.1 nM
EC50 (influenza virus): 9.98 nM

O=C1c2c(O)c(=O)ccn2N([C@H]2c3cc(F)c(F)cc3CSc3ccccc32)[C@@H]2COCCN12 [III-12]
IC50 [1]: 2.18 nM
EC50 (influenza virus): 3.38 nM

O=C1c2c(O)c(=O)ccn2N([C@@H]2c3cccc(F)c3SCc3cccc(F)c32)[C@@H]2COCCN12 [III-13]
IC50 [1]: 3.94 nM
EC50 (influenza virus): 4 nM

O=C1c2c(O)c(=O)ccn2N([C@H]2c3cc(F)ccc3CSc3ccccc32)[C@@H]2COCCN12 [III-14]
IC50 [1]: 15 nM
EC50 (influenza virus): 15.7 nM

O=C1c2c(O)c(=O)ccn2N([C@H]2c3cc(Cl)ccc3CSc3ccccc32)[C@@H]2COCCN12 [III-15]
IC50 [1]: 37.3 nM
EC50 (influenza virus): 16.9 nM

O=C1c2c(O)c(=O)ccn2N([C@@H]2c3cccc(Cl)c3SCc3cccc(F)c32)[C@@H]2COCCN12 [III-16]
IC50 [1]: 4.33 nM
EC50 (influenza virus): 10.2 nM

O=C1c2c(O)c(=O)ccn2N([C@@H]2c3ccccc3SCc3c2cccc3C(F)(F)F)[C@@H]2COCCN12 [III-17]
IC50 [1]: 3.89 nM
EC50 (influenza virus): 8.14 nM

Cc1cccc2c1[C@H](N1[C@@H]3COCCN3C(=O)c3c(O)c(=O)ccn31)c1ccccc1SC2 [III-18]
EC50 (influenza virus): 3.28 nM

O=C1c2c(O)c(=O)ccn2N([C@@H]2c3ccccc3SCc3c(F)cccc32)[C@@H]2COCCN12 [III-19]
EC50 (influenza virus): 1.43 nM

O=C1c2c(O)c(=O)ccn2N([C@@H]2c3ccccc3SCc3cccc(Cl)c32)[C@@H]2COCCN12 [III-20]
EC50 (influenza virus): 4 nM

O=C1c2c(O)c(=O)ccn2N([C@@H]2c3ccccc3SCc3c2ccc(F)c3F)[C@@H]2CC(F)(F)CCN12 [III-21]
IC50 [1]: 4.06 nM
EC50 (influenza virus): 2.7 nM

C[C@@H]1COC[C@@H]2N1C(=O)c1c(O)c(=O)ccn1N2[C@@H]1c2ccccc2SCc2c1ccc(F)c2F [III-22]
IC50 [1]: 3.46 nM
EC50 (influenza virus): 3.07 nM

O=C1c2c(O)c(=O)ccn2N([C@@H]2c3ccccc3SCc3c2ccc(F)c3F)[C@@H]2CC3(CCOCC3)CCN12 [III-23]
IC50 [1]: 1.48 nM
EC50 (influenza virus): 0.86 nM

O=C1c2c(O)c(=O)ccn2N([C@@H]2c3ccccc3SCc3cccc(O)c32)[C@@H]2COCCN12 [III-24]
IC50 [1]: 13.3 nM
EC50 (influenza virus): 24.1 nM

O=C1c2c(O)c(=O)ccn2N([C@H]2c3ccccc3CSc3ccccc32)[C@@H]2CCCCN12 [III-25]
IC50 [1]: 2.96 nM
EC50 (influenza virus): 2.35 nM

O=C1c2c(O)c(=O)ccn2N([C@@H]2c3ccccc3SCc3c2ccc(F)c3F)[C@@H]2C[C@@H](C(F)(F)F)CCN12 [III-26]
IC50 [1]: 1.63 nM
EC50 (influenza virus): 3 nM

O=C1c2c(O)c(=O)ccn2N([C@@H]2c3ccccc3SCc3c2cccc3C(F)(F)F)[C@@H]2CCCCN12 [III-27]
IC50 [1]: 4.19 nM
EC50 (influenza virus): 3.61 nM

C[C@H]1COC[C@@H]2N1C(=O)c1c(O)c(=O)ccn1N2[C@@H]1c2cccc(F)c2SCc2cccc(F)c21 [III-28]
IC50 [1]: 10.7 nM
EC50 (influenza virus): 5.67 nM

O=C1c2c(O)c(=O)ccn2N([C@@H]2c3ccccc3SCc3c2ccc(F)c3F)[C@@H]2CC3(CCN12)COC3 [III-29]
IC50 [1]: 0.87 nM
EC50 (influenza virus): 0.66 nM

C[C@H]1COC[C@@H]2N1C(=O)c1c(O)c(=O)ccn1N2[C@H]1c2ccc(F)cc2CSc2ccccc21 [III-30]
EC50 (influenza virus): 3.01 nM

C[C@H]1COC[C@@H]2N1C(=O)c1c(O)c(=O)ccn1N2[C@@H]1c2ccccc2SCc2cccc(F)c21 [III-31]
IC50 [1]: 18.5 nM
EC50 (influenza virus): 3.17 nM

C[C@H]1COC[C@@H]2N1C(=O)c1c(O)c(=O)ccn1N2[C@H]1c2ccccc2CSc2ccccc21 [III-32]
IC50 [1]: 27.6 nM
EC50 (influenza virus): 7.23 nM

CC1(C)CCN2C(=O)c3c(O)c(=O)ccn3N([C@@H]3c4ccccc4SCc4c3ccc(F)c4F)[C@@H]2C1 [III-33]
EC50 (influenza virus): 2.36 nM

O=C1c2c(O)c(=O)ccn2N([C@@H]2c3ccccc3SCc3c2ccc(F)c3F)[C@@H]2CCC(F)(F)CN12 [III-34]
IC50 [1]: 4.69 nM
EC50 (influenza virus): 2.85 nM

CC1(C)CC[C@@H]2N(C1)C(=O)c1c(O)c(=O)ccn1N2[C@@H]1c2ccccc2SCc2c1ccc(F)c2F [III-35]
IC50 [1]: 3.86 nM
EC50 (influenza virus): 3 nM

O=C1c2c(O)c(=O)ccn2N([C@@H]2c3ccccc3SCc3c2ccc(F)c3F)[C@@H]2CC3(CCN12)CC3 [III-36]
EC50 (influenza virus): 2.45 nM

O=C1c2c(O)c(=O)ccn2N([C@@H]2c3ccccc3SCc3c2ccc(F)c3F)[C@@H]2CO[C@H](C(F)(F)F)CN12 [III-37]
IC50 [1]: 4.24 nM
EC50 (influenza virus): 3.43 nM

O=C1c2c(O)c(=O)ccn2N([C@@H]2c3ccccc3SCc3c2ccc(F)c3F)[C@@H]2C[C@H](C(F)(F)F)CCN12 [III-38]
IC50 [1]: 8.26 nM
EC50 (influenza virus): 4.04 nM

CO[C@@H]1CCN2C(=O)c3c(O)c(=O)ccn3N([C@@H]3c4ccccc4SCc4c3ccc(F)c4F)[C@@H]2C1 [III-39]
IC50 [1]: 2.75 nM
EC50 (influenza virus): 2.81 nM

C[C@H]1CC[C@@H]2N(C1)C(=O)c1c(O)c(=O)ccn1N2[C@@H]1c2ccccc2SCc2c1ccc(F)c2F [III-40]
IC50 [1]: 2.99 nM
EC50 (influenza virus): 2.95 nM

C[C@@H]1CCN2C(=O)c3c(O)c(=O)ccn3N([C@@H]3c4ccccc4SCc4c3ccc(F)c4F)[C@@H]2C1 [III-41]
IC50 [1]: 2.1 nM
EC50 (influenza virus): 2.17 nM

C[C@@H]1CC[C@@H]2N(C1)C(=O)c1c(O)c(=O)ccn1N2[C@@H]1c2ccccc2SCc2c1ccc(F)c2F [III-42]
IC50 [1]: 3.93 nM
EC50 (influenza virus): 2.64 nM

O=C1c2c(O)c(=O)ccn2N([C@H]2c3ccc(F)cc3CSc3ccccc32)[C@@H]2C[C@H](C(F)(F)F)CCN12 [III-43]
IC50 [1]: 3.9 nM
EC50 (influenza virus): 3.18 nM

O=C1c2c(O)c(=O)ccn2N([C@@H]2c3ccccc3SCc3cccc(F)c32)[C@@H]2CC(F)(F)CCN12 [III-44]
IC50 [1]: 3.81 nM
EC50 (influenza virus): 3.68 nM

CC1(C)CCN2C(=O)c3c(O)c(=O)ccn3N([C@@H]3c4ccccc4SCc4cccc(F)c43)[C@@H]2C1 [III-45]
IC50 [1]: 1.63 nM
EC50 (influenza virus): 3.07 nM

O=C1c2c(O)c(=O)ccn2N([C@H]2c3ccc(F)cc3CSc3ccccc32)[C@@H]2CC(F)(F)CCN12 [III-46]
IC50 [1]: 2.91 nM
EC50 (influenza virus): 3.18 nM

O=C1c2c(O)c(=O)ccn2N([C@H]2c3ccc(F)cc3CSc3ccccc32)[C@@H]2CCCCN12 [III-54]
EC50 (influenza virus): 1.18 nM
